In patent publication US20220023181A1, “PEROXIDE-LESS BIOPHOTONIC COMPOSITIONS AND METHODS” (KLOX TECHNOLOGIES LIMITED, priority 2015, published 2022):

Test: Dilution assay with ROS test assay (liposomes + fluorogenic α-tocopherol probe)
Settings: Example 5 first round; illumination 5 or 9 min per sample
Experimental: For the dilution assay, an amount of a given gel composition is taken and mixed into a volume of PBS in order to dilute the gel. For example, to make a 10 mL solution ten times diluted, a 1 gram sample of the particular gel is mixed into 9 mL of PBS. Thereafter, depending on the make-up of the sample to be tested, an amount of a particular compound, for example urea peroxide (UP) or a particular salt, could be added in order to either boost an amount of the particular compound that was already in the sample to be tested or to test the effect of adding that given compound per se. With respect to adding UP in order to make test samples with various concentrations to be tested in a concomitant series of tests, an initial sample with a high concentration would be prepared from which aliquots would be taken and diluted down with PBS in order to the test samples with the various concentration of UP. In a multi-well plate, the given diluted sample are mixed with 19.1 μL of the liposome solution (to give a final liposome concentration of 15.4 mg/mL in the test sample) in order to provide a 2 mm thickness of the resulting paste-like mixture, this thickness being equivalent to a thickness of gel that would be spread on a patient or used in an in vitro assay. Also present in the sample-liposome mixture is a quantity of the chemical probe that is used in the reactive oxygen species (ROS) test assay (362.9 μL of the of the diluted gel (i.e., the given gel sample that is to be tested) is mixed with 19.1 μL of liposome-probe, as including the chemical probe in the sample-liposome mixture is to ensure that any ROS species will be afforded a maximal opportunity to interact with the probe and thus be detectable as having been generated as a result of any interaction that may occur in the gel composition upon it becoming activated. […] After the illumination is completed, a 100 μL to 300 μL aliquot of the sample-liposome transferred to a 96-well plate for conducting the ROS test (as further described in (iii) below). For the test samples, stock solutions of the samples were made and diluted such that direct comparisons could be made between the samples (e.g., for the measurement of reactive oxygen species).
The ROS test assay utilized in the experimental protocols of the Examples of the present disclosure is that which is described in Krumova et al. “How Lipid Unsaturation, Peroxyl Radical Partitioning, and Chromanol Lipophilic Tail Affect the Antioxidant Activity of a-Tocopherol: direct Visualization via High-Throughput Fluorescence Studies Conducted with Fluorogenic a-Tocopherol Analogues” (J. Am. Chem. Soc. 2012, vol. 134, pages 10102-10113). The assay utilizes highly sensitive fluorogenic α-tocopherol (TOH) analogues that undergo a 30-fold fluorescence intensity enhancement upon their reaction with peroxyl radicals that are generated due to the oxidation of the liposome membrane with ROS species that may be present in the reaction mixture. The assay utilizes a high-throughput microplate reader that relies on the high sensitivity of the TOH probes and provides a quantitative treatment of the temporal evolution of the fluorescence intensity thereby allowing for kinetic information to be obtained under the conditions being analyzed. The TOH analogues are two-segment receptor-reporter probes that consist of a chromanol moiety coupled to the meso position of a BODIPY fluorophore, either by an ester linker (the probe being called H2B-TOH) or via a methylene linker (the probe being called H2B-PMHC). The chromanol moiety quenches the emission of the fluorophore until it is oxidized following reaction with peroxyl radicals. […]

Structure (SMILES)	ROS [µM]
NC(N)=O.OO [S 23, urea peroxide]	0.46
NC(N)=O.OO [S 27, urea peroxide]	0.75
NC(N)=O.OO [S 22, urea peroxide]	0.49
NC(N)=O.OO [S 28, urea peroxide]	0.87
NC(N)=O.OO [S 20, urea peroxide]	0.34
NC(N)=O.OO [S 26, urea peroxide]	0.72
NC(N)=O.OO [S 21, urea peroxide]	0.39
NC(N)=O.OO [S 29, urea peroxide]	0.86
NC(N)=O.OO [S 25, urea peroxide]	0.56
NC(N)=O.OO [S 24, urea peroxide]	0.51
